Experimental findings from patent publication US11884671B2, “Purinone compounds and their use in treating cancer” (ASTRAZENECA AB, priority 2018, dated 2024) are described below.

Assay [1] deals with Full length human DNAPK protein (Homo sapiens (Human), UniProt P78527). Put plainly: DNAPK enzyme potency assay (DNA-PK enz), TR-FRET. The format is biochemical. The settings on record: arithmetic mean of two or more experiments, 18 μM ATP; for IC50: read-out: DNA-PK enz pIC50 (converted). From the text: The following assays were used to measure the effects of the compounds described herein: a) DNAPK enzyme potency assay; b) DNAPK cellular potency assay. During the description of the assays, generally: • i. The following abbreviations have been used; DMSO=Dimethyl Sulphoxide; DTT=Dithiothreitol; EDTA=Ethylenediaminetetraacetic Acid, TR-FRET=Time Resolved Fluorescence Resonance Energy Transfer, ATP=Adenosine triphosphate, DTT=Dithiothreitol, DNA=Deoxyribonucleic acid, HEPES=(2-hydroxyethyl)-1-piperazineethanesulfonic acid • ii. […] Assay a): DNAPK Enzyme Potency Assay (DNA-PK Enz)
The inhibitory activity of compounds against DNAPK was determined by TR-FRET measuring a fluorescent labelled peptide substrate converting to a phosphorylated product. Fluorescently tagged peptide substrate were purchased from Thermo Fisher Scientific. 12 point half-log compound concentration-response curves, with a top concentration of 100 μM were generated from 10 mM stocks of compound solubilised in DMSO using an Echo 555 (Labcyte Inc., Sunnyvale, CA). All assays were preformed in white Greiner 1536 well low volume plates (Greiner Bio-One, UK), in a total reaction volume of 3 μL and 1% (v/v) final DMSO concentration. Enzymes and substrates were added separately to the compound plates and incubated at room temperature. The kinase reaction was then quenched by the addition of 3 μL of stop buffer. Stopped assay plates were read using a BMG Pherastar. IC50 values were calculated using a Genedata Screener® software (Genedata, Inc., Basel, Switzerland).
Full length human DNAPK protein was purified from HeLa cell extract by ion exchange. Initially DNAPK protein was incubated with compound for 30 minutes at room temperature in reaction buffer (50 mM Hepes pH 7.5, 0.01% Brij-35, 10 mM MgCl2, 1 mM EGTA, 1 mM DTT, […] Calf Thymus DNA). The reaction was then initiated by the addition of ATP and fluorescently tagged peptide substrate (Fluorescein-[…], Thermo Fisher Scientific). […] The reaction was incubated for a further hour and the plates were read on a BMG Pherastar.
(§1) Data was analysed and IC50 values were calculated using Genedata Screener® software (Genedata, Inc., Basel, Switzerland).
A general note: Time-resolved FRET reads energy transfer from a long-lived donor to a nearby acceptor.

A further assay addresses DNAPK (Homo sapiens (Human), UniProt P78527). Put plainly: DNAPK cellular potency assay (DNA-PK cell), pS2056-DNAPK ELISA in irradiated A549 cells. The format is cell-based. The settings on record: 8 Gy radiation, arithmetic mean of two or more experiments, read-out: DNA-PK cell pIC50 (converted). The method, then:
The DNAPK cell ELISA assay was performed in the A549 cell line. A549 cells were cultured in cell media composed of MEM-F12 (Minimum Essential Medium F12 Sigma #D6421), 10% (v/v) Foetal Calf Serum and 1% (v/v) 200 mM L-Glutamine. […] The following day the Greiner ELISA plates were washed 3× with PBS-T and blocked with 3% BSA/PBS for 2 h, before a further 3× wash with PBS-T.
The cell plates were then incubated for 1 h at 37° C. before receiving a radiation dose of 8 Gy (XRAD 320, table height 65). The cells were incubated for a further 1 h before removal of cell media. […] Cell lysates ([…]) were transferred to the DNAPK antibody-coated ELISA plates using a CyBio Felix liquid handling platform, and ELISA plates were incubated at 4° C. overnight.
The following day, ELISA plates were washed 3× with PBS-T and dispensed with in-house pS2056-DNAPK antibody (0.5 μg/mL in 3% BSA/PBS) at 20 ul/well.
The fluorescence intensity of individual wells was determined using a PerkinElmer EnVision plate reader.
as §1
A general note: An ELISA detects its analyte on a solid surface through an enzyme-linked reagent.

The target of another assay is JAK2 (Homo sapiens (Human), UniProt O60674). Nature of the assay: JAK2 enzyme assay (Z'-LYTE). The settings on record: 25 μM ATP, arithmetic mean of two or more experiments; for IC50: read-out: JAK2 enz pIC50 (converted). The format is biochemical. The method, then: (§2) The inhibitory activity of compounds against AURKA, AURKB, JAK1, JAK2 and JAK3 was determined in Z′-LYTE® assays run by ThermoFisher Scientific as part of their SelectScreen® Biochemical Kinase Profiling Service. The Z′-LYTE® biochemical assay format employs a fluorescence-based, coupled-enzyme format and is based on the differential sensitivity of phosphorylated and non-phosphorylated peptides to proteolytic cleavage. The peptide substrate is labeled with two fluorophores—one at each end—that make up a FRET pair. In the primary reaction, the kinase transfers the gamma-phosphate of ATP to a single tyrosine, serine or threonine residue in a synthetic FRET-peptide. In the secondary reaction, a site-specific protease recognises and cleaves non-phosphorylated FRET-peptides. Phosphorylation of FRET-peptides suppresses cleavage by the Development Reagent. Cleavage disrupts FRET between the donor (i.e., coumarin) and acceptor (i.e., fluorescein) fluorophores on the FRET-peptide, whereas uncleaved, phosphorylated FRET-peptides maintain FRET. A ratiometric method, which calculates the ratio (the Emission Ratio) of donor emission to acceptor emission after excitation of the donor fluorophore at 400 nm, is used to quantitate reaction progress. Both cleaved and uncleaved FRET-peptides contribute to the fluorescence signals and therefore to the Emission Ratio. The extent of phosphorylation of the FRET-peptide can be calculated from the Emission Ratio.
(§3) 10 point three-fold dilution compound concentration-response curves, with a top concentration of 10 μM were generated from 10 mM stocks of compound solubilised in DMSO. All assays were performed in black, non-binding, low volume Corning 384-well plates (cat. #4514, Corning), in a total reaction volume of 10 μL and 1% (v/v) final DMSO concentration. […] The kinase reaction was then quenched by the addition of 5 μL of Development Reagent (ThermoFisher Scientific proprietary). […] IC50 values were calculated using XLfit software (IDBS Ltd, Surrey, UK), with the curve fit to model number 205 (sigmoidal dose-response model).
JAK2: The 2×JAK2/Tyr 06 (ThermoFisher Scientific proprietary) mixture was prepared in 50 mM HEPES pH 7.5, 0.01% BRIJ-35, 10 mM MgCl2, 1 mM EGTA. […] After the 1 hour Kinase Reaction incubation, 5 μL of a 1:128 dilution of Development Reagent was added.

Another assay addresses JAK3 (Homo sapiens (Human), UniProt P52333). Nature of the assay: JAK3 enzyme assay (Z'-LYTE). The class given is biochemical. The settings on record: 10 μM ATP, arithmetic mean of two or more experiments; for IC50: read-out: JAK3 enz pIC50 (converted). The procedure: as §2, §3
JAK3: The 2×JAK3/Tyr 06 (ThermoFisher Scientific proprietary) mixture was prepared in 50 mM HEPES pH 7.5. 0.01% BRIJ-35, 10 mM MgCl2, 1 mM EGTA. […] After the 1 hour Kinase Reaction incubation, 5 μL of a 1:128 dilution of Development Reagent was added.

In another assay the target is AURKB (Aurora B) (Homo sapiens (Human), UniProt Q96GD4). Put plainly: Aurora-B enzyme assay (Z'-LYTE). The format is biochemical. The settings on record: 75 μM ATP, arithmetic mean of two or more experiments; for IC50: read-out: AurB enz pIC50 (converted). The method, then:
as §2, §3
Aurora B (AurB): The 2×AURKB (Aurora B)/Ser/Thr 01 (ThermoFisher Scientific proprietary) mixture was prepared in 50 mM HEPES pH 7.5, 0.01% BRIJ-35, 10 mM MgCl2, 1 mM EGTA. […] After the 1 hour Kinase Reaction incubation, 5 μL of a 1:4096 dilution of Development Reagent was added.

JAK2, sequence (O60674 whole entry): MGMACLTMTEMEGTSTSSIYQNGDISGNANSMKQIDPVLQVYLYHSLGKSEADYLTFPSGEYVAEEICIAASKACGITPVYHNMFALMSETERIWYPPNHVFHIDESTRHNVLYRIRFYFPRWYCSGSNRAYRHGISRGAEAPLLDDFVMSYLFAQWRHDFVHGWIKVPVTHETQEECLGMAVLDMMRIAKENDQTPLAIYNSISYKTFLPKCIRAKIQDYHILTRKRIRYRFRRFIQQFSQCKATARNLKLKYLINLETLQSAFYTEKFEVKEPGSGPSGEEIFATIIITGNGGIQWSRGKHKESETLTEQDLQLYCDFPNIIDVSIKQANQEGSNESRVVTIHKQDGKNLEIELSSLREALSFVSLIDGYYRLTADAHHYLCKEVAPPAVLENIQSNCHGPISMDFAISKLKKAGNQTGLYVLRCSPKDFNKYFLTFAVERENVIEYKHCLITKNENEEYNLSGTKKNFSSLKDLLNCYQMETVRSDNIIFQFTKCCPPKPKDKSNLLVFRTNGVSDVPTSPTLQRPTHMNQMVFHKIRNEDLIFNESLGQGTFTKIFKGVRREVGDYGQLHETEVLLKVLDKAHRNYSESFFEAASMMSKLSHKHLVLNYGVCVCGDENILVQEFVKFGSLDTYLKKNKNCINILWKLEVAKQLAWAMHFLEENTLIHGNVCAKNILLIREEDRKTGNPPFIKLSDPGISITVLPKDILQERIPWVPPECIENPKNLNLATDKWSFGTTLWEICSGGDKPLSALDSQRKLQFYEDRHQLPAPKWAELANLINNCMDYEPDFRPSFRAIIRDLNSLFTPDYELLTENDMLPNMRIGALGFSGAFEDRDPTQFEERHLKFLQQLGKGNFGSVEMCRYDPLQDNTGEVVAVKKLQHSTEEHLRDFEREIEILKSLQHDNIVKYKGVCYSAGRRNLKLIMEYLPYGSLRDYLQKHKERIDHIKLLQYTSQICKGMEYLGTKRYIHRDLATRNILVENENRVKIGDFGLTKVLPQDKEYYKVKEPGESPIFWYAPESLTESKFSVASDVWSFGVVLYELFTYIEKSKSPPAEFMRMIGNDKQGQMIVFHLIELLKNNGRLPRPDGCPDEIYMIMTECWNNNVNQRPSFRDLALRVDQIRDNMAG
JAK3, sequence (P52333 whole entry): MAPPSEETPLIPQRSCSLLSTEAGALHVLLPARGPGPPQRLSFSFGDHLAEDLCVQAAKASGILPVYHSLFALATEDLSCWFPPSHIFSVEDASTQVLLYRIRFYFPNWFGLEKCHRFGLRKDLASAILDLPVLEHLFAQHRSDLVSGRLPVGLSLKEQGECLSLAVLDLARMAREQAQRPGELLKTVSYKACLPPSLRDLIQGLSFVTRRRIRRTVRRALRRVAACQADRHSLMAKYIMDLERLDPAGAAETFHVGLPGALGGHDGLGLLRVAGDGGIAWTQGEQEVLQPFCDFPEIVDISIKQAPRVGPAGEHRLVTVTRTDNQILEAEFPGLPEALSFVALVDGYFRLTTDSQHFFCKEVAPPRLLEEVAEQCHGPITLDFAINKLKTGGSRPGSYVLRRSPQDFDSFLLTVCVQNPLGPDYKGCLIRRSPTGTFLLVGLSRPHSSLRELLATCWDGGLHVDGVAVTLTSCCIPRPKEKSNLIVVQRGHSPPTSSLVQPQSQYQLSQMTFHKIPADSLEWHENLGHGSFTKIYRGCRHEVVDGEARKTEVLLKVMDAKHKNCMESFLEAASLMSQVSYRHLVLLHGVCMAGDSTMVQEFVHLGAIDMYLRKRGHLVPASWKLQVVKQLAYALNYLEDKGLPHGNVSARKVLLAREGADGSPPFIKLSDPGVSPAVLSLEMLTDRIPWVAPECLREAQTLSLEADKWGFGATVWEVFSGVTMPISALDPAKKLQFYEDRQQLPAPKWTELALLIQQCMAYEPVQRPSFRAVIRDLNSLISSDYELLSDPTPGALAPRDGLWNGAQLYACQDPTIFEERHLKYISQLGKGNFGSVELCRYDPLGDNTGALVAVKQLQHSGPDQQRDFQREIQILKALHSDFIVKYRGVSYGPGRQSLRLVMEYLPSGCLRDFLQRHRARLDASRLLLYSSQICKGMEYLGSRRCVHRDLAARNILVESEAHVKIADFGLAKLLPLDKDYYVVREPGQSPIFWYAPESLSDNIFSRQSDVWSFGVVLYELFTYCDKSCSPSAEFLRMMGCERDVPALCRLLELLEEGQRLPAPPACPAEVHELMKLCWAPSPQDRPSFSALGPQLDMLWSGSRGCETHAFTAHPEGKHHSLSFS
AURKB (Aurora B), sequence (Q96GD4 whole entry): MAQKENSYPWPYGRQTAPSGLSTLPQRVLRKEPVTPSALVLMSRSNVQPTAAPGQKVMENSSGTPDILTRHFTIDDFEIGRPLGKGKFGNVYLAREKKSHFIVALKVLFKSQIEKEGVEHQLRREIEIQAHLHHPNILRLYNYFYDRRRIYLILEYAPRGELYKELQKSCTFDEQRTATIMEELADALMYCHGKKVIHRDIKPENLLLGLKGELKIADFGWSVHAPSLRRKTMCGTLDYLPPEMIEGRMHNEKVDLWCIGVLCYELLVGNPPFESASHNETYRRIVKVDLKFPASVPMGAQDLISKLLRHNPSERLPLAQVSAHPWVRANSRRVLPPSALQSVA

In the case of `CC(=O)N1CCC(n2c(=O)n(C)c3cnc(Nc4cc5ccnnc5cc4C)nc32)CC1` [Example 1, 9-(1-acetylpiperidin-4-yl)-7-methyl-2-((7-methylcinnolin-6-yl)amino)-7,9-dihydro-8H-purin-8-one], in assay [1], the “DNA-PK enz pIC50” value stood at 10.0. Also, the IC50 on DNAPK is 0.2 µM. Besides, on JAK2, the “JAK2 enz pIC50” value is given as under 5.2. The “JAK3 enz pIC50” value at JAK3 is on record as under 5. Moreover, the “AurB enz pIC50” value on AURKB (Aurora B) was under 5.
As to `CC(=O)N1CCC(n2c(=O)n(C)c3cnc(Nc4cc5nccnc5cc4C)nc32)CC1` [Example 2, 9-(1-acetylpiperidin-4-yl)-7-methyl-2-((7-methylquinoxalin-6-yl)amino)-7,9-dihydro-8H-purin-8-one], the “DNA-PK enz pIC50” value in assay [1] stood at 9.8. On DNAPK, the IC50 was 0.0501 µM. The “JAK2 enz pIC50” value at JAK2 is on record as under 5. In addition, on JAK3, the “JAK3 enz pIC50” value is given as under 5. Further, the “AurB enz pIC50” value on AURKB (Aurora B) is under 5.
With `CC(=O)N1CCC(n2c(=O)n(C)c3cnc(Nc4cc5cncnc5cc4C)nc32)CC1` [Example 3, 9-(1-acetylpiperidin-4-yl)-7-methyl-2-((7-methylquinazolin-6-yl)amino)-7,9-dihydro-8H-purin-8-one], the “DNA-PK enz pIC50” value in assay [1] is reported as over 10. For the same compound, at DNAPK, the IC50 was 0.0631 µM. At JAK2, the “JAK2 enz pIC50” value is listed as under 5. Also, the “JAK3 enz pIC50” value on JAK3 is on record as under 5. In addition, the “AurB enz pIC50” value at AURKB (Aurora B) was under 5.
For `CC(=O)N1CCC(n2c(=O)n(C)c3cnc(Nc4cc5ncc(C)nc5cc4C)nc32)CC1` [Example 4, 9-(1-acetylpiperidin-4-yl)-2-((2,7-dimethylquinoxalin-6-yl)amino)-7-methyl-7,9-dihydro-8H-purin-8-one], the “DNA-PK enz pIC50” value in assay [1] came to 9.0. Further, on DNAPK, the IC50 was 0.251 µM. In addition, the “JAK2 enz pIC50” value on JAK2 is under 5. Also, at JAK3, the “JAK3 enz pIC50” value is recorded as under 5. Also, the “AurB enz pIC50” value at AURKB (Aurora B) is on record as under 5.
With `CC(=O)N1CCC(n2c(=O)n(C)c3cnc(Nc4cc5nc(C)cnc5cc4C)nc32)CC1` [Example 5, 9-(1-acetylpiperidin-4-yl)-2-((3,7-dimethylquinoxalin-6-yl)amino)-7-methyl-7,9-dihydro-8H-purin-8-one], the “DNA-PK enz pIC50” value in assay [1] worked out at 9.1. Moreover, the IC50 on DNAPK was 0.1 µM. In addition, on JAK2, the “JAK2 enz pIC50” value was under 5. Also, the “JAK3 enz pIC50” value at JAK3 is recorded as under 5. At AURKB (Aurora B), the “AurB enz pIC50” value is reported as under 5.
For `Cc1cc2ncccc2cc1Nc1ncc2c(n1)n([C@H]1CC[C@H](O)CC1)c(=O)n2C` [Example 6, 9-((1r,4r)-4-hydroxycyclohexyl)-7-methyl-2-((7-methylquinolin-6-yl)amino)-7,9-dihydro-8H-purin-8-one], the “DNA-PK enz pIC50” value in assay [1] is reported as over 10. In addition, the IC50 at DNAPK was 0.00501 µM. In addition, the “JAK2 enz pIC50” value at JAK2 was under 5. The “JAK3 enz pIC50” value on JAK3 is recorded as under 5. The “AurB enz pIC50” value on AURKB (Aurora B) is on record as under 5.
With `Cc1cc2nnccc2cc1Nc1ncc2c(n1)n([C@H]1CC[C@H](O)CC1)c(=O)n2C` [Example 7, 9-((1r,4r)-4-hydroxycyclohexyl)-7-methyl-2-((7-methylcinnolin-6-yl)amino)-7,9-dihydro-8H-purin-8-one], in assay [1], the “DNA-PK enz pIC50” value was over 10. At DNAPK, the IC50 is 0.0501 µM. Moreover, the “JAK2 enz pIC50” value at JAK2 is listed as under 5. Besides, the “JAK3 enz pIC50” value on JAK3 is listed as under 5. Besides, on AURKB (Aurora B), the “AurB enz pIC50” value is recorded as under 5.
For `Cc1cc2nccc(C)c2cc1Nc1ncc2c(n1)n([C@H]1CC[C@H](O)CC1)c(=O)n2C` [Example 8, 2-((4,7-dimethylquinolin-6-yl)amino)-9-((1r,4r)-4-hydroxycyclohexyl)-7-methyl-7,9-dihydro-8H-purin-8-one], the IC50 in assay [1] is under 0.0001 µM; at DNAPK, 0.01 µM; on JAK2 it was over 10 µM; on JAK3 it was over 10 µM; on AURKB (Aurora B), over 10 µM.
With `COc1ccnc2cc(C)c(Nc3ncc4c(n3)n([C@H]3CC[C@H](O)CC3)c(=O)n4C)cc12` [Example 9, 9-((1r,4r)-4-hydroxycyclohexyl)-2-((4-methoxy-7-methylquinolin-6-yl)amino)-7-methyl-7,9-dihydro-8H-purin-8-one], the “DNA-PK enz pIC50” value in assay [1] is listed as over 10. Also, at DNAPK, the IC50 was 0.00794 µM. In addition, the “JAK2 enz pIC50” value at JAK2 was under 5. Further, the “JAK3 enz pIC50” value on JAK3 was under 5. In addition, at AURKB (Aurora B), the “AurB enz pIC50” value is reported as under 5.
For the compound `Cc1cc2nccnc2cc1Nc1ncc2c(n1)n([C@H]1CC[C@H](O)CC1)c(=O)n2C` [Example 10, 9-((1r,4r)-4-hydroxycyclohexyl)-7-methyl-2-((7-methylquinoxalin-6-yl)amino)-7,9-dihydro-8H-purin-8-one], the IC50 in assay [1] is under 0.0001 µM; at DNAPK it was 0.01 µM; on JAK2, over 10 µM; on JAK3 it was over 10 µM; on AURKB (Aurora B) it was over 10 µM.
Take `Cc1cc2ncccc2cc1Nc1ncc2c(n1)n([C@H]1CC[C@@H](O)CC1)c(=O)n2C` [Example 11, 9-((1s,4s)-4-hydroxycyclohexyl)-7-methyl-2-((7-methylquinolin-6-yl)amino)-7,9-dihydro-8H-purin-8-one]: the IC50 is 0.000158 µM in assay [1]; 0.02 µM on DNAPK; over 10 µM at JAK2; over 10 µM on JAK3; over 10 µM at AURKB (Aurora B).
